{"source": "patent US20240190871A1", "about": "“KRASG12D INHIBITOR, PREPARATION METHOD THEREFOR AND APPLICATION THEREOF” (YA THERAPEUTICS INC, priority 2021, published 2024)"}
{"target": "KRAS-G2D/SOS1 (Homo sapiens, UniProt P01116, G12D)", "sequence (P01116 1-188 isoform P01116-2 G12D)": "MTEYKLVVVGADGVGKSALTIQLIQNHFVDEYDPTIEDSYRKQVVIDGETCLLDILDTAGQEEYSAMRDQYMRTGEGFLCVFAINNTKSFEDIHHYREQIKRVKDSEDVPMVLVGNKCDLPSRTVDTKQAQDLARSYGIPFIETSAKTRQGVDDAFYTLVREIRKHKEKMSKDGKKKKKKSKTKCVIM", "assay": "KRAS-G2D/SOS1 binding experiment (HTRF)", "settings": "His-tagged G12D protein and Tag1-SOS protein, room temperature", "experimental": "• A) Dilute Tagged-His Tag G12D protein and Tag1-SOS protein with diluent at 1:100, and use detection buffer for anti-Tag1-Tb3+ antibody and anti-Tag2-XL665 at 1:100 or 1:25, respectively Dilute. • B) Dilute the compound to be tested with diluent starting from […] concentration, 4 times gradient, a total of 6 concentration gradients, and dilute to 10× stock solution. • C) In a 96-well plate, add 4 uL Tagged-His Tag G12D protein, 4 uL Tag1-SOS protein, 2 ul dilution solution (positive control) or test compound (different concentrations of 10× stock solution) to each well in sequence, a total of 10 ul, and incubate at room temperature for […], add pre-mixed 5 uL anti-Tag1-Tb3+ and 5 uL anti-Tag2-xL665, seal the plate, incubate at room temperature for 2 hours, and read the HTRF signal with a TECAN INFINITEF NANO+ microplate reader.\nThe ratio of […] and donor excitation signals for each single well was calculated using the formula ratio=665 nm signal value/620 nm signal value×[…]. Data were processed using Graphpadprism5 software. IC50 values were calculated by sigmoidal dose-response curve fitting.", "units": {"IC50": "nM"}}
{"smiles": "C[C@@H]1CNCCN1c1nc(OC[C@@H]2CCCN2C)nc2nc(-c3cc(O)cc4cccc(Cl)c34)c(F)cc12", "note": "[Compound 45, 5-chloro-4-(6-fluoro-4-((R)-2-methylpiperazin-1-yl)-2-(((S)-1-methylpyrrolidin-2-yl)methoxy)pyrido [2,3-d]pyrimidin-7-yl)naphthalen-2-ol]", "IC50": "≤ 50"}
{"tested_on": "ATCC CRL-1739 (KRASG^12D mutant) cells", "assay": "Tumor cell proliferation inhibition experiment (Cell Titer-Glo, 72 hours)", "assay_type": "cell-based", "settings": "72 hours incubation, 10% fetal bovine serum, ATP content", "experimental": "The ATCC CRL-1739 (KRASG^12D mutant) cells were digested, centrifuged and resuspended, and the cell density was measured with a Scepter automatic cell counter. The cells were diluted to a solution containing 44,000 cells per milliliter, and the density-adjusted cell solution was 90 per well. Microliters were added to a 96-well culture plate. The 96-well plate was placed in a 37° C., 5% CO2 incubator. After the cells were cultured for 24 hours, different concentrations of the compounds to be tested were added. The cells were incubated with the compounds for 72 hours in the presence of 10% fetal bovine serum. Glo Luminescent Cell Viability Assay Kit (see manufacturer's instructions for details) was used to measure ATP content to assess cell growth inhibition. Briefly, 30 μl of Cell Titer-Glo reagent was added to each well, and the plate was shaken for 10 minutes to induce cell lysis. FluoroskanAscentFL (Thermo) assay records the […], and the maximum signal value is obtained from cells treated with DMSO for 72 hours. The minimum signal value was obtained from the medium alone (the number of cells was zero), and the % inhibition rate=(the maximum signal value compound signal value)/(the maximum signal value−the minimum signal value×100%, and the data were processed using Graphpadprism 5 software. By sigmoid Dose-response curve fitting to calculate IC50 value. “A” means IC50≤50 nM; “B” means 50<IC50≤500 nM; “C” means 500<IC50≤2000 nM; “D” means 2000<IC50", "units": {"IC50": "nM"}}
{"smiles": "C[C@@H]1CNCCN1c1nc(OC[C@@H]2CCCN2C)nc2nc(-c3cccc4cccnc34)c(F)cc12", "note": "[Compound 39, 6-fluoro-4-((R)-2-methylpiperazin-1-yl)-2-(((S)-1-methylpyrrolidin-2-yl)methoxy)-7-(quinolin-8-yl)pyrido[2,3-d]pyrimidine]", "IC50": "> 2000"}
{"smiles": "C[C@@H]1CNCCN1c1nc(OC[C@@H]2CCCN2C)nc2nc(-c3cc(O)cc4cccc(Cl)c34)c(F)cc12", "note": "[Compound 45, 5-chloro-4-(6-fluoro-4-((R)-2-methylpiperazin-1-yl)-2-(((S)-1-methylpyrrolidin-2-yl)methoxy)pyrido [2,3-d]pyrimidin-7-yl)naphthalen-2-ol]", "IC50": "50 to 500"}
{"smiles": "C[C@@H]1CNCCN1c1nc(OCCN(C)C)nc2nc(-c3c(O)cccc3F)c(F)cc12", "note": "[Compound 2, 2-(2-(2-(dimethylamino)ethoxy)-6-fluoro-4-((R)-2-methylpiperazin-1-yl)pyrido[2,3-d]pyrimidin-7-yl)-3-fluorophenol]", "IC50": "> 2000"}
{"smiles": "C[C@@H]1CNCCN1c1nc(OC[C@@H]2CCCN2C)nc2nc(-c3cccc4ccoc34)c(F)cc12", "note": "[Compound 40, 7-(benzofuran-7-yl)-6-fluoro-4-((R)-2-methylpiperazin-1-yl)-2-(((S)-1-methylpyrrolidin-2-yl)methoxy)pyrido [2,3-d]pyrimidine]", "IC50": "> 2000"}
{"smiles": "C[C@@H]1CNCCN1c1nc(OC[C@@H]2CCCN2C)nc2nc(-c3cccc4c3cnn4C)c(F)cc12", "note": "[Compound 42, 6-fluoro-7-(1-methyl-1H-indazol-4-yl)-4-((R)-2-methylpiperazin-1-yl)-2-(((S)-1-methylpyrrolidin-2-yl)methoxy)pyrido [2,3-d]pyrimidine]", "IC50": "> 2000"}
{"smiles": "C[C@@H]1CNCCN1c1nc(OC[C@@H]2CCCN2C)nc2nc(-c3cccc4ccncc34)c(F)cc12", "note": "[Compound 43, 6-fluoro-7-(isoquinolin-8-y1)-4-((R)-2-methylpiperazin-1-y1)-2-(((S)-1-methylpyrrolidin-2-yl)methoxy)pyrido [2,3-d]pyrimidine]", "IC50": "500 to 2000"}
{"smiles": "C[C@@H]1CNCCN1c1nc(OC[C@@H]2CCCN2C)nc2nc(-c3cccc4ncccc34)c(F)cc12", "note": "[Compound 44, 6-fluoro-4-((R)-2-methylpiperazin-1-y1)-2-(((S)-1-methylpyrrolidin-2-yl)methoxy)-7-(quinolin-5-yl)pyrido[2,3-d]pyrimidine]", "IC50": "500 to 2000"}
{"smiles": "C[C@@H]1CNCCN1c1nc(OC[C@@H]2CCCN2C)nc2nc(-c3cccc4ccccc34)c(F)cc12", "note": "[Compound 35, 6-fluoro-4-((R)-2-methylpiperazin-1-yl)-2-(((S)-1-methylpyrrolidin-2-yl)methoxy)-7-(naphthalen-1-yl)pyrido[2,3-d]pyrimidine]", "IC50": "> 2000"}
{"smiles": "Oc1cc(-c2nc3nc(OC[C@@]45CCCN4C[C@H](F)C5)nc(N4C[C@H]5CC[C@@H](C4)N5)c3cc2F)c2c(Cl)cccc2c1", "note": "[Compound 55, 4-(4-((1R,5S)-3,8-diazabicyclo [3.2.1]octan-3-yl)-6-fluoro-2-(((2R,7aS)-2-fluorohexahydro-1H-pyrrolizin-7a-yl)methoxy)pyrido[2,3-d]pyrimidin-7-yl)-5-chloronaphthalen-2-ol]", "IC50": "≤ 50"}
{"smiles": "C[C@@H]1CNCCN1c1nc(OC[C@@H]2CCCN2C)nc2nc(-c3ccccc3Cl)c(F)cc12", "note": "[Compound 32, 7-(2-chlorophenyl)-6-fluoro-4-((R)-2-methylpiperazin-1-yl)-2-(((S)-1-methylpyrrolidin-2-yl)methoxy)pyrido [2,3-d]pyrimidine]", "IC50": "> 2000"}
{"smiles": "C[C@@H]1CNCCN1c1nc(OC[C@@H]2CCCN2C)nc2nc(-c3cccc4c3ccn4C)c(F)cc12", "note": "[Compound 41, 6-fluoro-7-(1-methyl-1H-indol-4-yl)-4-((R)-2-methylpiperazin-1-yl)-2-(((S)-1-methylpyrrolidin-2-yl)methoxy)pyrido [2,3-d]pyrimidine]", "IC50": "> 2000"}
{"smiles": "Oc1cc(-c2nc3nc(OC[C@@]45CCCN4C[C@H](F)C5)nc(N4C5CNCC4C5)c3cc2F)c2c(Cl)cccc2c1", "note": "[Compound 53, 4-(4-(3,6-diazabicyclo[3.1.1]heptan-6-yl)-6-fluoro-2-(((2R,7aS)-2-fluorohexahydro-1H-pyrrolizin-7a-yl)methoxy)pyrido[2,3-d]pyrimidin-7-yl)-5-chloronaphthalen-2-ol]", "IC50": "≤ 50"}
{"smiles": "Oc1cc(-c2nc3nc(OC[C@@]45CCCN4CC(F)C5)nc(N4CC5CCC(C4)N5)c3cc2F)c2c(F)cccc2c1", "note": "(stereo partly drawn) [Compound 56, 4-(4-((1R,5S)-3,8-diazabicyclo [3.2.1]octan-3-yl)-6-fluoro-2-(((2R,7aS)-2-fluorohexahydro-1H-pyrrolizin-7a-yl)methoxy)pyrido[2,3-d]pyrimidin-7-y1)-5-fluoronaphthalen-2-ol]", "IC50": "≤ 50"}
{"smiles": "Oc1cc(-c2nc3nc(OCC4(CN5CCCC5)CC4)nc(N4C5CNCC4C5)c3cc2F)c2c(F)cccc2c1", "note": "[Compound 51, 4-(4-(3,6-diazabicyclo[3.1.1]heptan-6-yl)-6-fluoro-2-((1-(pyrrolidin-1-ylmethyl)cyclopropyl)methoxy)pyrido[2,3-d]pyrimidin-7-yl)-5-fluoronaphthalen-2-ol]", "IC50": "50 to 500"}
{"smiles": "CCc1c(F)ccc2cc(O)cc(-c3nc4nc(OC[C@@]56CCCN5C[C@H](F)C6)nc(N5C[C@H]6CC[C@@H](C5)N6)c4cc3F)c12", "note": "[Compound 59, 4-(4-((1R,5S)-3,8-diazabicyclo[3.2.1]octan-3-yl)-6-fluoro-2-(((2R,7aS)-2-fluorotetrahydro-1H-pyrrolizin-7a(5H)-yl)methoxy)pyrido[2,3-d]pyrimidin-7-yl)-5-ethyl-6-fluoronaphthalen-2-ol]", "IC50": "≤ 50"}
{"smiles": "Oc1cc(-c2nc3nc(OC[C@@H]4C[C@@H](F)CN4C4CC4)nc(N4C5CNCC4C5)c3cc2F)c2c(F)cccc2c1", "note": "[Compound 50, 4-(4-(3,6-diazabicyclo[3.1.1]heptan-6-yl)-2-(((2S,4R)-1-cyclopropyl-4-fluoropyrrolidin-2-yl)methoxy)-6-fluoropyrido[2,3-d]pyrimidin-7-yl)-5-fluoronaphthalen-2-ol]", "IC50": "500 to 2000"}
{"smiles": "Oc1cc(-c2nc3nc(OCC4(CN5CC[C@@H](F)C5)CC4)nc(N4C5CNCC4C5)c3cc2F)c2c(F)cccc2c1", "note": "[Compound 52, 4-(4-(3,6-diazabicyclo[3.1.1]heptan-6-yl)-6-fluoro-2-((1-(((R)-3-fluoropyrrolidin-1-yl)methyl)cyclopropyl)methoxy)pyrido[2,3-d]pyrimidin-7-yl)-5-fluoronaphthalen-2-ol]", "IC50": "50 to 500"}
{"smiles": "CN1CCC[C@H]1COc1nc(N2C3CNCC2C3)c2cc(F)c(-c3cc(O)cc4cccc(Cl)c34)nc2n1", "note": "[Compound 47, 4-(4-(3,6-diazabicyclo[3.1.1]heptan-6-yl)-6-fluoro-2-(((S)-1-methylpyrrolidin-2-yl)methoxy)pyrido [2,3-d]pyrimidin-7-yl)-5-chloronaphthalen-2-ol]", "IC50": "50 to 500"}
{"smiles": "CN1C[C@H](F)C[C@H]1COc1nc(N2C3CNCC2C3)c2cc(F)c(-c3cc(O)cc4cccc(F)c34)nc2n1", "note": "[Compound 49, 4-(4-(3,6-diazabicyclo[3.1.1]heptan-6-yl)-6-fluoro-2-(((2S,4R)-4-fluoro-1-methylpyrrolidin-2-yl)methoxy)pyrido [2,3-d]pyrimidin-7-y1)-5-fluoronaphthalen-2-ol]", "IC50": "500 to 2000"}
{"smiles": "C[C@@H]1CNCCN1c1nc(OC[C@@H]2CCCN2C)nc2nc(-c3cccc4ccsc34)c(F)cc12", "note": "[Compound 38, 7-(benzo[b]thiophen-7-yl)-6-fluoro-4-((R)-2-methylpiperazin-1-y1)-2-(((S)-1-methylpyrrolidin-2-yl)methoxy)pyrido [2,3-d]pyrimidine]", "IC50": "> 2000"}
{"smiles": "CN1CCC[C@H]1COc1nc(N2C3CNCC2C3)c2cc(F)c(-c3cc(O)cc4cccc(F)c34)nc2n1", "note": "[Compound 48, 4-(4-(3,6-diazabicyclo[3.1.1]heptan-6-yl)-6-fluoro-2-(((S)-1-methylpyrrolidin-2-yl)methoxy)pyrido [2,3-d]pyrimidin-7-yl)-5-fluoronaphthalen-2-ol]", "IC50": "≤ 50"}
{"smiles": "C[C@@H]1CNCCN1c1nc(OC[C@@H]2CCCN2C)nc2nc(-c3ccc4ccccc4c3)c(F)cc12", "note": "[Compound 37, 6-fluoro-4-((R)-2-methylpiperazin-1-y1)-2-(((S)-1-methylpyrrolidin-2-yl)methoxy)-7-(naphthalen-2-yl)pyrido[2,3-d]pyrimidine]", "IC50": "> 2000"}
